Tested on: Lichen Ruber Planus
Assay: Case study: patient with Lichen ruber planus
Type: in vivo, human
Details: Patient 4; several years, orally and by injection to local inflammation areas
Procedure: During the last five years reports have been received from patients taking the commercial dietary supplement capsules of the algal meal of Haematococcus pluvialis, Astaxin®, containing 4 mg astaxanthin. The daily doses recommended as an antioxidant is one capsule per day.
Patient 4. […] The symptoms of the disease were inter alia open wounds which had not healed […] had been treated with anti-inflammatory agents, such as cortisone, for several years, orally and also by injection directly to the local inflammation areas. […] They started to take 4 capsules of Astaxin per day, and after some weeks visible alleviation of the symptoms started to show up. […] During this period, the patient […] phased out the cortisone treatment. The dose of Astaxin was lowered to 2 capsules per day when they were asymtomatic. However, the symptoms returned in connection with a common cold.

C[C@]12CCC(=O)C=C1CC[C@@H]1[C@@H]2C(=O)C[C@@]2(C)[C@H]1CC[C@]2(O)C(=O)CO [cortisone]
result of previous anti-inflammatory treatment: has not led to any result

From patent publication US6773708B1, “Use of xanthophylls, astaxanthin e.g., for treatment of autoimmune diseases, chronic viral and intracellular bacterial infections” (AstaReal AB, priority 1999, dated 2004)
